Source: paper PMC10681907, “2-Hydroxyglutarate modulates histone methylation at specific loci and alters gene expression via Rph1 inhibition” (Life Science Alliance, 2023)

Key:
Test in all cases: FDH-coupled fluorescent demethylase assay, initial velocities, Hill fit
Assay type in all cases: biochemical
Rph1 = biological target: T1, Rph1 (Saccharomyces cerevisiae, UniProt P39956)
T1 construct: full-length, N-terminal Strep(II) tag (pET51b+), expressed in E. coli BL21 Star (DE3), codon-optimized

Jhd1 = biological target: T2, Jhd1 (Saccharomyces cerevisiae, UniProt P40034)
T2 construct: full-length, N-terminal Strep(II) tag (pET51b+), expressed in E. coli BL21 Star (DE3), codon-optimized
T2 sequence (P40034 1-492): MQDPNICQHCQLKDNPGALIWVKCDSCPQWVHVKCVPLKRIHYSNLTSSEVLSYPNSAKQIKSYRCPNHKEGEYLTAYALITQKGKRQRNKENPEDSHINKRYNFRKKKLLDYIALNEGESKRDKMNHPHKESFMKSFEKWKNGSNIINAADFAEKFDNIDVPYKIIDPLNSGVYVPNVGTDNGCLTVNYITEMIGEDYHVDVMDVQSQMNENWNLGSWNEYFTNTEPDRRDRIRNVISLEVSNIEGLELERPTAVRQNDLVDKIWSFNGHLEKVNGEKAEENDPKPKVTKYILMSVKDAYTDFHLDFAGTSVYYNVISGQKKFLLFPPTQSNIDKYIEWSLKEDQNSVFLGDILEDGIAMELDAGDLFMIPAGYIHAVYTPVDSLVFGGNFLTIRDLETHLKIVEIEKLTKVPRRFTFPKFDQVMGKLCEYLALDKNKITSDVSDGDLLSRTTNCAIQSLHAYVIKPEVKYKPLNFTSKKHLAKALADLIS

Gis1 = biological target: T3, Gis1 (Saccharomyces cerevisiae, UniProt Q03833)
T3 construct: full-length, N-terminal Strep(II) tag (pET51b+), expressed in E. coli BL21 Star (DE3), codon-optimized
T3 sequence (Q03833 1-894): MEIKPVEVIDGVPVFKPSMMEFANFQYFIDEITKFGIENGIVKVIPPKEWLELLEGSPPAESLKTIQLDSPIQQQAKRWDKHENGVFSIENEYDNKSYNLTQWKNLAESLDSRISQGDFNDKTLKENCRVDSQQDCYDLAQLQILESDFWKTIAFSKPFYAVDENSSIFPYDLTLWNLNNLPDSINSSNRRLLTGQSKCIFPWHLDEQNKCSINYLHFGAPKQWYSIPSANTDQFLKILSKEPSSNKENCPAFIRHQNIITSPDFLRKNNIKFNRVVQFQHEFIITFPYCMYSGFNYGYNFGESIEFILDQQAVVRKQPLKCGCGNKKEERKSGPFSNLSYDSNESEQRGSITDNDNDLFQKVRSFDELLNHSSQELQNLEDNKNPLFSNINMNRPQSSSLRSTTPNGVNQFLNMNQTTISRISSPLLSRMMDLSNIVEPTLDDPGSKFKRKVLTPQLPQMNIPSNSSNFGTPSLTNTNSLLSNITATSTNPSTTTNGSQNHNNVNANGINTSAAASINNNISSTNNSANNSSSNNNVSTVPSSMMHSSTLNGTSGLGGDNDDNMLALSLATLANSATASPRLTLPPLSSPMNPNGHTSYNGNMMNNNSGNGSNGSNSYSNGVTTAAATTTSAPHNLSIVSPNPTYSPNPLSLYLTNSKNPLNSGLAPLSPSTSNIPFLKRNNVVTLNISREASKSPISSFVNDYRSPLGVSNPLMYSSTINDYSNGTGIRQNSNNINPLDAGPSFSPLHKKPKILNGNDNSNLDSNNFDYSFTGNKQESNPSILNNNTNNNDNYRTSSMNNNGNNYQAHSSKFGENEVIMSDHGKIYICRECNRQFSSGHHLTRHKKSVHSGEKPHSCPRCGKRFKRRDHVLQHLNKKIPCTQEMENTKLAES

Jhd2 = biological target: T4, Jhd2 (Saccharomyces cerevisiae, UniProt P47156)
T4 construct: full-length, N-terminal Strep(II) tag (pET51b+), expressed in E. coli BL21 Star (DE3), codon-optimized
T4 sequence (P47156 1-728): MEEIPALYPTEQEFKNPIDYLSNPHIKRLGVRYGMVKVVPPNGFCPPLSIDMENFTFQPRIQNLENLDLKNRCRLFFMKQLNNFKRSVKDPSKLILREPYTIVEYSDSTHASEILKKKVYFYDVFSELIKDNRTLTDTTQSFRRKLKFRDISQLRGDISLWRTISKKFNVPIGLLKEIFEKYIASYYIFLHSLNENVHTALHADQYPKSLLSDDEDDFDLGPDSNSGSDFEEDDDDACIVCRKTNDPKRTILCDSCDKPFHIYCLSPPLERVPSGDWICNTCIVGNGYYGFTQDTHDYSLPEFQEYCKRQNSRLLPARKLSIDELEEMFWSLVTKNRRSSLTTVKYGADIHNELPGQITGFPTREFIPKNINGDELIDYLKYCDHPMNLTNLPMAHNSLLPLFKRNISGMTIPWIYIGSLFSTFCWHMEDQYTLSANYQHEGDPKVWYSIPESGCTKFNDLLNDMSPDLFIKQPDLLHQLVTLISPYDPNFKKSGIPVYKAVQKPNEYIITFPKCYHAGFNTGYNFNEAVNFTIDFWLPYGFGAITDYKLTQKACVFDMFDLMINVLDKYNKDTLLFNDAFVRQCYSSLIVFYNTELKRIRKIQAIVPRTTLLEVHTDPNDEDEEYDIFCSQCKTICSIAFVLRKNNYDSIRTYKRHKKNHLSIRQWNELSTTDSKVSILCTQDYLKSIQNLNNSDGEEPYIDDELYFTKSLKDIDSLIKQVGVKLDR

T1 sequence (P39956 whole entry): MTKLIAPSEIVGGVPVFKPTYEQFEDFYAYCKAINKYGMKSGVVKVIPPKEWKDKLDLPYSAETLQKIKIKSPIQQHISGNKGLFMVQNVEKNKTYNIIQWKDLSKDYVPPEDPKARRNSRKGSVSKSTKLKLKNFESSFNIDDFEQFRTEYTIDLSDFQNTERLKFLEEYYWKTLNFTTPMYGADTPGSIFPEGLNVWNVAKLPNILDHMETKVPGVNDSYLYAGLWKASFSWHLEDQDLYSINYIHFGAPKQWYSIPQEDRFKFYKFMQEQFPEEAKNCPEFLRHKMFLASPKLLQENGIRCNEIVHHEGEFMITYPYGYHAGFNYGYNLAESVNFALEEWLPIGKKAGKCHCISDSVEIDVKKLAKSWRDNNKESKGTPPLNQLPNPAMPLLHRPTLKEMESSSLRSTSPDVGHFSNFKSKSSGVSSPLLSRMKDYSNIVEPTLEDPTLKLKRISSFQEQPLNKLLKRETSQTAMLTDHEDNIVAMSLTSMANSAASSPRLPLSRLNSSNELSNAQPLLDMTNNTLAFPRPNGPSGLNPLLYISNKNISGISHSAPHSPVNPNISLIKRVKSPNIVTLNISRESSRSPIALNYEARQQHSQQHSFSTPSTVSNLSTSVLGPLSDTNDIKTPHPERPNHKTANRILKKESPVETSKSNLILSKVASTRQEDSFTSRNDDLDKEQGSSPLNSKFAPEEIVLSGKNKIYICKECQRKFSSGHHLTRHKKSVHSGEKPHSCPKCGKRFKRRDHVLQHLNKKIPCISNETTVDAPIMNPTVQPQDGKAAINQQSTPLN

IC50 (Rph1): ~1.3 mM
IC50 (Jhd1): ~2 mM
IC50 (Gis1): ~3.1 mM
IC50 (Jhd2): ~2.2 mM
Compound: O=C(O)CC[C@@H](O)C(=O)O [2-HG]
